Experimental data reported in patent US20240246931A1, “COMPOUNDS AS PD1/PD-L1 INHIBITORS AND METHODS THEREOF” (JUBILANT PRODEL LLC, priority 2021, published 2024).

What follows are molecules tested against T1, PD-1/PD-L1 interaction (Homo sapiens, UniProt Q9NZQ7) (assay: PD-1/PD-L1 HTRF binding assay (CisBio kit)). Details: HTRF PD1/PD-L1 inhibition assay.
T1 construct: purchased CisBio 63ADK000CPAPEG
Method: PD-L1 Enzyme Assay: Homogenous Time-Resolved Fluorescence (HTRF) Binding Assay
All binding studies were performed using PD-1/PD-L1 Binding Assay Kit from CisBio (Catalog #63ADK000CPAPEG), according to the manufacturer's protocol. The interaction between Tag1-PD-1 and […] was detected by anti-Tag1-Eu^3+ (HTRF donor) and anti-Tag2-XL665 (HTRF acceptor). When the donor and acceptor antibodies were brought to close proximity due to PD-1 and PD-L1 binding, excitation of the donor antibody triggered fluorescent resonance energy transfer (FRET) towards the acceptor antibody, which in turn emitted specifically at 665 nm. This specific signal is positively proportional to PD-1/PD-L1 interaction. The compounds blocking PD-1/PD-L1 interaction will cause a reduction in HTRF signal. The necessary reagents were mixed in the following order: 2 μL compounds (or diluents buffer), 4 μL PD-L1 protein, 4 μL PD-1 protein. After an incubation of 15 minutes, 5 μL of anti-Tag1-Eu^3+ and 5 μL of anti-Tag2-XL665 were added. The plate was sealed and incubated at room temperature for 1 h. The fluorescence emission was read at two different wavelengths (665 nm and 620 nm) on a BMG PheraStar® multi-plate reader.
Results were calculated from the 665 nm and 620 nm fluorescence signal and expressed in HTRF ratio=(665 nm/620 nm)×10^4.
Compounds having IC50<100 nM are designated as “A”; 100-500 nM are designated as “B”; and >500 nM are designated as “C” respectively.

T1 sequence (Q9NZQ7 19-238 limits assumed): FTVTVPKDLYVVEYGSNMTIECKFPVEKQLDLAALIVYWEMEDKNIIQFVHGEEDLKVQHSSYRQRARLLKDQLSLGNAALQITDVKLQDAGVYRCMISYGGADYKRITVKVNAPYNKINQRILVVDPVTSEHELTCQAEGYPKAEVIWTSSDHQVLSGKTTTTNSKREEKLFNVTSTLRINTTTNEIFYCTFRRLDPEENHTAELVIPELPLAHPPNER

First: Cc1c(COc2cc(OCc3cncc(C#N)c3)c(C(=O)N3CC[C@H](CO)C3)c3c2CCC3)cccc1-c1ccccc1 [Example 51, (S)-5-(((4-(3-(hydroxymethyl)pyrrolidine-1-carbonyl)-7-((2-methyl-[1,1′-biphenyl]-3-yl)methoxy)-2,3-dihydro-1H-inden-5-yl)oxy)methyl)nicotinonitrile]
Second: Cc1c(COc2cc(OCc3cncc(C#N)c3)c(CN3CCCC3CN)c3c2CCC3)cccc1-c1ccccc1 (stereo not drawn) [Example 53, 5-(((4-((2-(aminomethyl)pyrrolidin-1-yl)methyl)-7-((2-methyl-[1,1′-biphenyl]-3-yl)methoxy)-2,3-dihydro-1H-inden-5-yl)oxy)methyl)nicotinonitrile]
The IC50 of the first is higher: 100 to 500 nM for the first, < 100 nM for the second. The second is the more potent here.

`CC(=O)NCC1CCCN1Cc1c(OCc2cncc(C#N)c2)cc(OCc2cccc(-c3ccccc3)c2C)c2c1CCC2` (stereo not drawn) [Example 52, N-((1-((5-((5-cyanopyridin-3-yl)methoxy)-7-((2-methyl-[1,1′-biphenyl]-3-yl)methoxy)-2,3-dihydro-1H-inden-4-yl)methyl)pyrrolidin-2-yl)methyl)acetamide] and `Cc1c(COc2cc(OCc3cncc(C#N)c3)c(CN3CCC3CO)c3c2CCC3)cccc1-c1ccccc1F` (stereo not drawn) [Example 62, 5-(((7-((2′-fluoro-2-methyl-[1,1′-biphenyl]-3-yl)methoxy)-4-((2-(hydroxymethyl)azetidin-1-yl)methyl)-2,3-dihydro-1H-inden-5-yl)oxy)methyl)nicotinonitrile] cannot be ordered by IC50: < 100 nM for the first, < 100 nM for the second.

`Cc1c(Br)cccc1COc1cc(OCc2cncc(C#N)c2)c(CN2CCC2CO)c2c1CCC2` (stereo not drawn) [Example 54, 5-(((7-((3-bromo-2-methylbenzyl)oxy)-4-((2-(hydroxymethyl)azetidin-1-yl)methyl)-2,3-dihydro-1H-inden-5-yl)oxy)methyl)nicotinonitrile] and `Cc1c(COc2cc(OCc3cncc(C#N)c3)c(CN3CCC3CO)c3c2CCC3)cccc1-c1cn[nH]c1` (stereo not drawn) [Example 57, 5-(((4-((2-(hydroxymethyl)azetidin-1-yl)methyl)-7-((2-methyl-3-(1H-pyrazol-4-yl)benzyl)oxy)-2,3-dihydro-1H-inden-5-yl)oxy)methyl)nicotinonitrile] cannot be ordered by IC50: > 500 nM for the first, > 500 nM for the second.

`Cc1c(COc2cc(OCc3cncc(C#N)c3)c(CN3CCC3CO)c3c2CCC3)cccc1-c1ccc(O)cc1` (stereo not drawn) [Example 55, 5-(((7-((4′-hydroxy-2-methyl-[1,1′-biphenyl]-3-yl)methoxy)-4-((2-(hydroxymethyl)azetidin-1-yl)methyl)-2,3-dihydro-1H-inden-5-yl)oxy)methyl)nicotinonitrile] and `Cc1ccc(-c2cccc(COc3cc(OCc4cncc(C#N)c4)c(CN4CCC4CO)c4c3CCC4)c2C)cc1` (stereo not drawn) [Example 73, 5-(((7-((2,4′-dimethyl-[1,1′-biphenyl]-3-yl)methoxy)-4-((2-(hydroxymethyl)azetidin-1-yl)methyl)-2,3-dihydro-1H-inden-5-yl)oxy)methyl)nicotinonitrile] fall in the same range of IC50: 100 to 500 nM for the first, 100 to 500 nM for the second.

Compared with `Cc1ccc(F)c(-c2cccc(COc3cc(OCc4cncc(C#N)c4)c(CN4CCC4CO)c4c3CCC4)c2C)c1` (stereo not drawn) [Example 56, 5-(((7-((2′-fluoro-2,5′-dimethyl-[1,1′-biphenyl]-3-yl)methoxy)-4-((2-(hydroxymethyl)azetidin-1-yl)methyl)-2,3-dihydro-1H-inden-5-yl)oxy)methyl)nicotinonitrile], `COc1ccc(-c2cccc(COc3cc(OCc4cncc(C#N)c4)c(CN4CCC4CO)c4c3CCC4)c2C)c(C)c1` (stereo not drawn) [Example 58, 5-(((4-((2-(hydroxymethyl)azetidin-1-yl)methyl)-7-((4′-methoxy-2,2′-dimethyl-[1,1′-biphenyl]-3-yl)methoxy)-2,3-dihydro-1H-inden-5-yl)oxy)methyl)nicotinonitrile] is higher in IC50: 100 to 500 nM for the first, > 500 nM for the second. The first is the more potent here.

First: Cc1c(COc2cc(OCc3cncc(C#N)c3)c(CN3CCC3CO)c3c2CCC3)cccc1-c1cncnc1 (stereo not drawn) [Example 59, 5-(((4-((2-(hydroxymethyl)azetidin-1-yl)methyl)-7-((2-methyl-3-(pyrimidin-5-yl)benzyl)oxy)-2,3-dihydro-1H-inden-5-yl)oxy)methyl)nicotinonitrile]
Second: Cc1c(COc2cc(OCc3cncc(C#N)c3)c(CN3CCC3CO)c3c2CCC3)cccc1-c1cccnc1 (stereo not drawn) [Example 71, 5-(((4-((2-(hydroxymethyl)azetidin-1-yl)methyl)-7-((2-methyl-3-(pyridin-3-yl)benzyl)oxy)-2,3-dihydro-1H-inden-5-yl)oxy)methyl)nicotinonitrile]
The IC50 of the first is higher: > 500 nM for the first, 100 to 500 nM for the second. The second is the more potent here.

Compared with `Cc1c(COc2cc(OCc3cncc(C#N)c3)c(CN3CCC3CO)c3c2CCC3)cccc1-c1ccccc1C(F)(F)F` (stereo not drawn) [Example 60, 5-(((4-((2-(hydroxymethyl)azetidin-1-yl)methyl)-7-((2-methyl-2′-(trifluoromethyl)-[1,1′-biphenyl]-3-yl)methoxy)-2,3-dihydro-1H-inden-5-yl)oxy)methyl)nicotinonitrile], `Cc1c(COc2cc(OCc3cncc(C#N)c3)c(CN3CCC3CO)c3c2CCC3)cccc1-c1ccc(OC(F)(F)F)cc1` (stereo not drawn) [Example 66, 5-(((4-((2-(hydroxymethyl)azetidin-1-yl)methyl)-7-((2-methyl-4′-(trifluoromethoxy)-[1,1′-biphenyl]-3-yl)methoxy)-2,3-dihydro-1H-inden-5-yl)oxy)methyl)nicotinonitrile] is higher in IC50: 100 to 500 nM for the first, > 500 nM for the second. The first is the more potent here.

First: Cc1c(COc2cc(OCc3cncc(C#N)c3)c(CN3CCC3CO)c3c2CCC3)cccc1-c1ccc(N2CCOCC2)nc1 (stereo not drawn) [Example 61, 5-(((4-((2-(hydroxymethyl)azetidin-1-yl)methyl)-7-((2-methyl-3-(6-morpholinopyridin-3-yl)benzyl)oxy)-2,3-dihydro-1H-inden-5-yl)oxy)methyl)nicotinonitrile]
Second: Cc1c(COc2cc(OCc3cncc(C#N)c3)c(CN3CCC3CO)c3c2CCC3)cccc1-c1cccc(O)c1 (stereo not drawn) [Example 67, 5-(((7-((3′-hydroxy-2-methyl-[1,1′-biphenyl]-3-yl)methoxy)-4-((2-(hydroxymethyl)azetidin-1-yl)methyl)-2,3-dihydro-1H-inden-5-yl)oxy)methyl)nicotinonitrile]
The IC50 of the first is higher: > 500 nM for the first, < 100 nM for the second. The second is the more potent here.

Going from `COc1ccc(-c2cccc(COc3cc(OCc4cncc(C#N)c4)c(CN4CCC4CO)c4c3CCC4)c2C)cc1` (stereo not drawn) [Example 63, 5-(((4-((2-(hydroxymethyl)azetidin-1-yl)methyl)-7-((4′-methoxy-2-methyl-[1,1′-biphenyl]-3-yl)methoxy)-2,3-dihydro-1H-inden-5-yl)oxy)methyl)nicotinonitrile] to `COc1cccc(-c2cccc(COc3cc(OCc4cncc(C#N)c4)c(CN4CCC4CO)c4c3CCC4)c2C)c1` (stereo not drawn) [Example 65, 5-(((4-((2-(hydroxymethyl)azetidin-1-yl)methyl)-7-((3′-methoxy-2-methyl-[1,1′-biphenyl]-3-yl)methoxy)-2,3-dihydro-1H-inden-5-yl)oxy)methyl)nicotinonitrile], the IC50 falls from > 500 nM to < 100 nM. The second is the more potent here.

Compared with `Cc1c(COc2cc(OCc3cncc(C#N)c3)c(CN3CCC3CO)c3c2CCC3)cccc1-c1cccc(F)c1` (stereo not drawn) [Example 64, 5-(((7-((3′-fluoro-2-methyl-[1,1′-biphenyl]-3-yl)methoxy)-4-((2-(hydroxymethyl)azetidin-1-yl)methyl)-2,3-dihydro-1H-inden-5-yl)oxy)methyl)nicotinonitrile], `Cc1c(COc2cc(OCc3cncc(C#N)c3)c(CN3CCC3CO)c3c2CCC3)cccc1-c1ccncc1` (stereo not drawn) [Example 70, 5-(((4-((2-(hydroxymethyl)azetidin-1-yl)methyl)-7-((2-methyl-3-(pyridin-4-yl)benzyl)oxy)-2,3-dihydro-1H-inden-5-yl)oxy)methyl)nicotinonitrile] is higher in IC50: < 100 nM for the first, > 500 nM for the second.

First: Cc1c(COc2cc(OCc3cncc(C#N)c3)c(CN3CCC3CO)c3c2CCC3)cccc1-c1cnn(C)c1 (stereo not drawn) [Example 68, 5-(((4-((2-(hydroxymethyl)azetidin-1-yl)methyl)-7-((2-methyl-3-(1-methyl-1H-pyrazol-4-yl)benzyl)oxy)-2,3-dihydro-1H-inden-5-yl)oxy)methyl)nicotinonitrile]
Second: Cc1c(COc2cc(OCc3cncc(C#N)c3)c(CN3CC[C@H]3CO)c3c2CCC3)cccc1-c1cnc2[nH]ccc2c1 [Example 72, (S)-5-(((4-((2-(hydroxymethyl)azetidin-1-yl)methyl)-7-((2-methyl-3-(1H-pyrrolo[2,3-b]pyridin-5-yl)benzyl)oxy)-2,3-dihydro-1H-inden-5-yl)oxy)methyl)nicotinonitrile]
The IC50 of the first is higher: > 500 nM for the first, 100 to 500 nM for the second.

`Cc1c(COc2cc(OCc3cncc(C#N)c3)c(CN3CCC3CO)c3c2CCC3)cccc1-c1cccc2cccnc12` (stereo not drawn) [Example 69, 5-(((4-((2-(hydroxymethyl)azetidin-1-yl)methyl)-7-((2-methyl-3-(quinolin-8-yl)benzyl)oxy)-2,3-dihydro-1H-inden-5-yl)oxy)methyl)nicotinonitrile] and `Cc1c(COc2cc(OCc3cncc(C#N)c3)c(CN3CCC3CO)c3c2CCC3)cccc1-c1cnc2[nH]ccc2c1` (stereo not drawn) [Example 74, 5-(((4-((2-(hydroxymethyl)azetidin-1-yl)methyl)-7-((2-methyl-3-(1H-pyrrolo[2,3-b]pyridin-5-yl)benzyl)oxy)-2,3-dihydro-1H-inden-5-yl)oxy)methyl)nicotinonitrile 2,2,2-trifluoroacetate] cannot be ordered by IC50: > 500 nM for the first, > 500 nM for the second.
